Legend:
[1] = test system: blood brain barrier; experiment: Fluorescently labeled dextran extravasation into mouse brain (fluorimetry); assay type: in vivo, mice
Method: (§1) The adenosine receptor agonists NECA, CCPA, CGS 21860, and SCH 58261 (Tocris, Ellisville, Mo.) were each dissolved in DMSO then diluted in PBS to the desired concentration; in most cases final DMSO concentrations were <0.5% (vol/vol). Lexiscan (Regadenoson; TRC, Inc., Toronto) was dissolved in PBS. For vehicle controls, DMSO was diluted in PBS to the same concentration. Dehydrated dextrans labeled with either FITC or Texas Red (Invitrogen, Carlsbad, Calif.) were re-suspended in PBS to 10 mg/ml. All experiments involving dextran injection used 1.0 mg dextran in PBS. In experiments where drug and dextran were injected concomitantly, 1.0 mg of dextran was mixed with the drug to the desired concentration in a final volume of 200 μl. In dose-response experiments, drugs and dextrans were injected concomitantly. All injections, except injections of SCH 58261, were retro-orbital i.v. with a 27-gauge needle. In the SCH 58261 experiment, SCH 58261 injections, 1 mg/kg, were intraperitoneal and mice were pre-dosed with this concentration daily for 4 days prior to the day of the experiment. An additional injection was administered at the time of the experiment. Vehicle/drug and dextrans were injected on day 5 and tissues were collected 3 h after vehicle/drug administration. In Lexiscan experiments, Lexiscan was administered i.v. with 3 injections, 5 min apart and tissues were collected at 15 min unless otherwise indicated.
In dose-response experiments and experiments with the A1 AR and A2A AR knock-out mice, drugs and dextrans were injected concomitantly. After 3 h, the mice were anesthetized with ketamine/xylazine and subjected to a nose cone containing isoflurane. They were perfused with 25-50 ml ice-cold PBS through the left ventricle of the heart then decapitated. Their brains were removed, weighed and frozen for later analysis.
(§2) Ice-cold 50 mMTris-Cl (pH 7.6) was added to frozen brains (100 μl per 100 mg brain) and were to thawed on ice. They were homogenized with a dounce homogenizer and centrifuged at […] in a microfuge for 30 min at room temperature (rt). The supernatants were transferred to new tubes and an equal volume absolute methanol was added. The samples were centrifuged again at […] for 30 min at rt. Supernatant (200 μl) was transferred to a Corning costar 96 well black polystyrene assay plate (clear bottom). Additionally, a series of standards containing 0.001-10 pg/ml dextran in 50% Tris-Cl/50% absolute methanol (vol/vol) was added to each plate. Absolute concentrations of dextrans were derived from these standard curves. Fluorimetric analysis was performed on a BioTek (Winooski, Vt.) Synergy 4. FITC-dextran was detected at 488/519 (excitation/emission) and Texas Red-dextran was detected at 592/618.

[2] = test system: blood brain barrier; experiment: Fluorescently labeled dextran extravasation into rat brain (fluorimetry); assay type: in vivo; conditions: rats
Method: as §1
as §2, with “Additionally, a series of standards containing 0.001-10 pg/ml dextran in 50% Tris-Cl/50% absolute methanol (vol/vol) was added to each plate. Absolute concentrations of dextrans were derived from these standard curves. Fluorimetric analysis was performed on a BioTek (Winooski, Vt.) Synergy 4.” left out

[3] = test system: Bend.3 cells; experiment: Transendothelial cell electrical resistance (TEER) assay; assay type: cell-based; conditions: mouse BEC monolayers, 1 μM, vs vehicle or media alone
Method: Bend.3 cells were grown in ATCC-formulated DMEM supplemented with 10% FBS on 24-well transwell inserts, 8 μm pore size (BD Falcon, Bedford, Mass.) until a monolayer was established. TEER was assessed using a Voltohmeter (EVOMX, World Precision Instruments, Sarasota, Fla.). Background resistance from un-seeded transwells was subtracted from recorded values to determine absolute TEER values. Change in absolute TEER from T0 for each individual transwell was expressed as percentage change and then averaged for each treatment group.

[4] = test system: Bend.3 cells; experiment: Albumin uptake assay; assay type: cell-based, mouse; conditions: BECs, 1 μM, 30 minutes, vs media and vehicle
Method: Bend.3 cells grown on collagen coated coverslips were incubated with albumin-alexafluor 594 (50 mg/ml) (Invitrogen) and either media alone, DMSO vehicle, NECA (1 μM), or Lexiscan (1 μM) for 30 minutes. Albumin uptake was visualized (albumin=red) utilizing the Zeiss Axio Imager M1 fluorescent microscope. Total albumin fluorescence was recorded using Zeiss Axio Vision software, and measured utilizing Image-J software.

[5] = test system: Bend.3 cells; experiment: F-actin (phalloidin) staining of endothelial cells; assay type: cell-based, mouse; conditions: BECs, 1 μM, 3 or 30 min, vs vehicle
Method: Bend.3 cells were grown (as described above) on circular cover slips in 24-well plates. Cells were treated for 3 or 30 min with 1 μM CCPA, 1 μM […], DMSO or media alone. Cover slips were washed with PBS, fixed in 4% paraformaldahyde, washed again in PBS and then permeabilized with 0.5% TritonX-100 in PBS. After washing in PBS/1% BSA, cover slips were blocked with 1% BSA then stained with Phallodin-Alexa 568. Cover slips were washed and mounted on slides with ProlongGold containing DAPI (Invitrogen). Images were obtained on an Olympus BX51 fluorescent microscope.

[6] = test system: Bend.3 cells; experiment: Tight junction molecule staining (ZO-1, Claudin-5, Occludin); assay type: cell-based, mouse; conditions: 1 μM, 1 h
Method: Bend.3 cells grown on collagen coated coverslips were incubated with DMSO vehicle, NECA (1 μM), or Lexiscan (1 μM) for 1 h. Cells were washed with PBS, fixed with 4% paraformaldehyde, and permeabilized with 0.5% Triton-X in PBS. Cells were blocked with PBS/BSA/goat serum and then stained with antibodies (Invitrogen) against either ZO-1 (1A12), Claudin-5 (34-1600), or Occludin (3F10). Following a wash step, cells were incubated with either goat anti-rabbit IgTexas Red-X or goat anti-mouse IgCy5 (Invitrogen). Cover slips were washed and mounted on slides with ProlongGold containing DAPI. Images were obtained on a Zeiss Axio Imager M1 fluorescent microscope.

[7] = mice, single i.v. injection (0.05 mg/kg)

`CNC(=O)c1cnn(-c2nc(N)c3ncn([C@@H]4O[C@H](CO)[C@@H](O)[C@H]4O)c3n2)c1` [Lexiscan] was tested, and the “magnitude of increased BBB permeability compared with NECA” value ([1]; i.v. administration) was “much greater than the magnitude of increased permeability after NECA administration”, the “BBB permeability to 10,000 Da dextrans” value ([1]; mice, i.v. administration) was “increase BBB permeability to 10,000 Da dextrans” and the “time by which BBB permeability returned to baseline” value [1, 7] was no more than 180 min. The “time of maximum increased BBB permeability” value [1, 7] was 30 min, the “time after which FITC-dextran was detectable in the brain” value ([1]; mice, single injection) was 5 min and the “labeled-dextran levels in brain” value ([2]; 3 injections over 15 min) was “dramatically high levels of labeled-dextran”. The “increase in labeled-dextran, multiple doses compared to single injections” value ([2]; 3 injections vs single injection) was “more than 20 fold”, the BBB permeability ([2]; i.v. administration) was “increased BBB permeability in rats” and the TEER [3] was “decreases in TEER”. The “rate of fluorescently-labeled albumin uptake” value [4] was “did not affect the rate of fluorescently-labeled albumin uptake”, the “actinomyosin stress fiber formation” value [5] was “marked induction of actinomycin stress fibers” and the “ZO-1 and claudin-5 expression” value [6] was “discreet alterations in ZO-1 and claudin-5”. The occludin expression [6] was “severely diminished occludin expression”.
